Source: PMC6988422 (Molecular Plant Pathology, 2019)

Target: T1, CdgL (c-di-GMP receptor interacting with LysR; YajQ homologue, Le2538) (Lysobacter enzymogenes, UniProt A0A0S2DCE3)
T1 sequence (A0A0S2DCE3 1-160): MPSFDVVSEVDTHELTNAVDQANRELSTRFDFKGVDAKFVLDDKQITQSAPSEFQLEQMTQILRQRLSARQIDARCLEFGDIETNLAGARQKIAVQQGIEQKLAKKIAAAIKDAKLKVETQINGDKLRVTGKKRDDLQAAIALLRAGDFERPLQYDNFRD
Assay: microscale thermophoresis
Type: binding

Work on `Nc1nc2c(ncn2[C@@H]2O[C@@H]3CO[P@](=O)(O)O[C@H]4[C@@H](O)[C@H](n5cnc6c(=O)[nH]c(N)nc65)O[C@@H]4CO[P@](=O)(O)O[C@H]3[C@H]2O)c(=O)[nH]1` [c-di-GMP] yielded a Kd of 14.6 µM.
